# Experimental data as given in article PMC9546217, “Exploring novel nitrofuranyl sulfonohydrazides as anti‐Leishmania and anti‐cancer agents: Synthesis, in vitro efficacy and hit identification” (Chemical Biology & Drug Design, 2022).
# Like-named read-outs stand apart in the source and are kept apart here.
# Experiments:
# [1] = system: L. donovani strain 1S promastigotes; assay: Antipromastigote assay (resazurin); format: cell-based; conditions: L. donovani 1S, read-out: 1S IC50 ± SD, Promastigote
# Experimental: (§1) The antipromastigote activity of synthesized compounds was evaluated as described previously by Mangwegape et al. ([2021]) using three strains of L. donovani (1S (MHOM/SD/62/1S) and 9515 (MHOM/IN/95/9515)) and L. major (IR‐173 [MHOM/IR/−173]). The assay method is available in the Supinfo S1.
# (§2) The antipromastigote activity of synthesized compounds was evaluated using a modified, resazurin-based method of Kulshrestha et al. ^2 and Siqueira-Neto et al. ^3 and on three Leishmania strains. Leishmania donovani (strains 1S (MHOM/SD/62/1S) and 9515 (MHOM/IN/95/9515)) and L. major (strain IR-173 (MHOM/IR/-173)) promastigotes were cultured in M199 with Hank's salts and 0.68 mM L-glutamine (Sigma Aldrich) supplemented with 50 U/mL Penicillin/Streptomycin solution (Lonza), 4.2 mM sodium bicarbonate, 25 mM Hepes, 10% fetal bovine serum, 0.25% hemin, 0.1% biotin, and 10 mM adenine (Sigma Aldrich) and the pH adjusted to 7.3 – 7.4. The promastigotes were maintained at 25 °C.
# (§3) Amphothericin B (10 μM) served as the standard drug and growth medium without parasites served as the blank. The plates were incubated for 48 hours at 25 °C in humidified atmosphere. After incubation, 50 μL of resazurin solution (0.01% in PBS) was added to each well and the plates were further incubated at 25 °C in the dark for 24 hours. Absorbance was measured at 570 nm and 600 nm using the Thermofisher Scientific GO Multiscan plate reader. Data analysis was performed for each biological replicate using SkanIt 4.0 Research Edition software. Background absorbance of resazurin (600 nm) was subtracted from the absorbance values of resorufin (570 nm). The mean absorbance calculated and the percentage growth inhibition and cell viability were determined by the following equations: […]
# (§4) The IC50 and Z-score were determined for each compound’s three biological replicates using the cell viability % values and GraphPad Prism 5. The mean IC50 of the biological replicates with standard deviation (SD) served as the final IC50 of each compound.
# [2] = system: L. donovani strain 9515 promastigotes; assay: Antipromastigote assay (resazurin); format: cell-based; conditions: L. donovani 9515, read-out: 9515 IC50 ± SD, Promastigote
# Experimental: as §1, §2, §3, §4
# [3] = system: L. major strain IR‐173 promastigotes; assay: Antipromastigote assay (resazurin); format: cell-based; conditions: L. major IR‐173, read-out: Antileishmanial activity, IC50 ± SD, Promastigote
# Experimental: as §1, §2, §3, §4
# [4] = system: L. donovani strain 1S amastigotes; assay: Anti-amastigote assay (intramacrophage, THP-1 host, resazurin); format: cell-based; conditions: L. donovani 1S, read-out: 1S IC50 ± SD, Amastigote
# Experimental: (§5) The activities of synthesized compounds against the intramacrophage parasites of the three Leishmania strains were evaluated using a modified, resazurin‐based method (Jain et al., [2012]; Njanpa et al., [2021]). Suspension cultures of human acute monocytic leukemia (THP‐1) cells were maintained in RPMI‐1640 medium (Sigma Aldrich) supplemented with 10% FBS and 1% penicillin–streptomycin, at 37°C and 5% CO2 in a humidified atmosphere. Duplicate 96‐well plates (for respective anti‐amastigote and cytotoxicity assays) were seeded with 200 μl of a 2.5 × 10^5 cells/ml suspension treated with 25 ng/ml phorbol 12‐myristate 13‐acetate (PMA), followed by 48‐h incubation to promote differentiation into adherent macrophages.
# (§6) For the anti‐amastigote assay, differentiated plates were carefully washed with PBS, followed by the addition of 200 μl of stationary phase promastigotes in RPMI 1640 medium with 2% FBS. An MOI of 30:1 was used for all three Leishmania strains. The parasite‐treated plates were incubated for 24 h at 32°C (L. major) or 37°C (L. donovani) and 5% CO2 to promote infection of the macrophages. […] Blanks were represented by growth medium without cells, as well as parasite‐free THP‐1 cells. The treated plates were incubated for 72 h.
# (§7) After incubation, the plates were gently washed three times with PBS to remove any remaining extracellular parasites. The wells were then treated with 20 μl of 0.05% sodium dodecyl sulfate in PBS for 30 s to lyse the host macrophages. Lysis was terminated by adding 180 μl promastigote growth medium with 10% FBS. To initiate the resazurin assay, 10 μl of resazurin solution (0.025% in PBS) was added to all wells and the plates were incubated for 24 h at 32°C (L. major) or 37°C (L. donovani) and 5% CO2. Absorbance measurements, calculations, and IC50 determinations were performed as described for the antipromastigote assay (Supinfo S1).
# [5] = system: L. donovani strain 9515 amastigotes; assay: as above; format: cell-based; conditions: L. donovani 9515, read-out: 9515 IC50 ± SD, Amastigote
# Experimental: as §5, §6, §7
# [6] = system: L. major strain IR‐173 amastigotes; assay: as above; format: cell-based; conditions: read-out: Antileishmanial activity, IC50 ± SD, Amastigote
# Experimental: as §5, §6, §7
# A375 melanoma cells = assay: Anticancer assay (resazurin); format: cell-based, human; conditions: n = 3, read-out: Anticancer activity, IC50 ± SD, A375
# Experimental: (§8) The anticancer activities of synthesized compounds were evaluated using a resazurin‐based assay (Czekanska, [2011]). Accordingly, a screening method similar to that of the cytotoxicity assay was used to screen for anticancer activity, using human melanoma (A375), promyelocytic leukemia (Clone 15 HL‐60), lung cancer (A549), and breast cancer (MCF7) cells. The culture and assay methods are provided in the Supinfo S1.
# (§9) The potential anticancer activities of synthesized compounds were screened using the resazurin assay. ^5 Breast adenocarcinoma (MCF7, ATCC® HTB-22™) and human melanoma (A375, ATCC® CRL-1619™) cells were cultured in Hyclone Dulbecco's modified Eagle’s medium with high glucose (Separations) supplemented with 10 % fetal bovine serum (FBS) (Thermofisher Scientific) and 1 % L-glutamine, penicillin-streptomycin and non-essential amino acids (Lonza). Human lung carcinoma (A549, ATCC®, CCL-185™) cells were cultured in Ham’s F12K medium supplemented with 10% FBS and 1% L-glutamine, penicillin-streptomycin and non-essential amino acids. Human promyelocytic leukemia (Clone 15 HL-60, ATCC® CRL-1946™) cells were cultured in RPMI-1640 medium (Sigma Aldrich) supplemented with 10% FBS and 1% penicillin-streptomycin. The cell lines were maintained in a humidified atmosphere at 37 °C and 5% CO2.
# (§10) For the resazurin assay, 96 well plates were prepared with 100 μL of 100 000 cells/mL MCF7 cell suspension, 100 μL of 50 000 cells/mL A375 cell suspension, 100 μL of 25 000 cells/mL A549 cell suspension, or 50 μL of 50 000 cells/mL HL-60 cell suspension. The MCF7, A375 and A549 cell plates were incubated for 24 hours to allow adherence of the cells to the plate surface, after which the growth medium is replaced with 100 μL medium containing compounds. […] The cell lines were treated with: (i) parthenolide (Sigma Aldrich) (positive control); (ii) growth medium and solvent (negative control to compensate for possible solvent effects); (iii) growth medium and experimental compound solutions. […] Blanks contained growth medium without cells. The treated plates were incubated for 48 hours.
# (§11) To initiate the resazurin assay, 50 μL of sterile-filtered resazurin sodium salt (Sigma Aldrich) solution (0.01 % in PBS) was added and the plates incubated for 2 hours (MCF7, A375 and A549 cells) or 24 hours (HL-60 cells). Absorbance was measured at 570 and 600 nm using the Thermofisher Scientific GO Multiscan plate reader. Data analysis was performed for each biological replicate using SkanIt 4.0 Research Edition software. Further data analysis, calculations and IC50 determinations were identical to that of the antileishmanial and cytotoxicity assays.
# (§12) For the final IC50 of each compound, the mean IC50 of the biological replicates were calculated with standard deviation (SD).
# [7] = system: Clone 15 HL‐60 promyelocytic leukemia cells; assay: Anticancer assay (resazurin); format: cell-based, human; conditions: for IC50: read-out: Anticancer activity, IC50 ± SD, Clone 15 HL‐60
# Experimental: as §8, §9, §10, §11, §12
# [8] = Leishmania major, THP-1, L. major IR‐173
compound,measurement,setting,value
"NNS(=O)(=O)C1(Cl)C=CC(c2ccccc2)=CC1 (stereo not shown) [1j, 4-Chloro-(1,1'-biphenyl)-4-sulfonohydrazide]",melting point,,150 to 153 °C
"O=[N+]([O-])c1ccc(/C=N/NS(=O)(=O)c2ccc(I)cc2)o1 [2a, (E)-4-Iodo-N'-[(5-nitrofuran-2-yl)methylene]benzenesulfonohydrazide]",IC50,[1]; Leishmania donovani,> 10 µM
same,IC50,[2]; Leishmania donovani,> 10 µM
same,IC50,[3]; Leishmania major,> 10 µM
same,IC50,"[4]; Leishmania donovani, THP-1",> 10 µM
same,IC50,"[5]; Leishmania donovani, THP-1",> 10 µM
same,IC50,[6]; [8],> 10 µM
same,IC50,"A375 melanoma cells; Homo sapiens, A-375",> 10 µM
same,IC50,"[7]; Homo sapiens, HL-60, n = 3",> 10 µM
"(E)-4-Chloro-N'-[(5-nitrofuran-2-yl)methylene]-(1,1'-biphenyl)-4-sulfonohydrazide [2j]",IC50,[1],> 10 µM
same,IC50,[2],> 10 µM
same,IC50,[3],> 10 µM
same,IC50,[4],> 10 µM
same,IC50,[5],> 10 µM
same,IC50,[6]; L. major IR‐173,> 10 µM
same,IC50,A375 melanoma cells,> 10 µM
same,IC50,[7]; n = 3,> 10 µM
"Cc1cc(C)c(S(=O)(=O)NN)c(C)c1 [1e, 2,4,6-Trimethylbenzenesulfonohydrazide]",melting point,,110 to 113 °C
"CC(=O)Nc1ccc(S(=O)(=O)N/N=C/c2ccc([N+](=O)[O-])o2)cc1 [2g, (E)-N-{4-{ {2-[(5-nitrofuran-2-yl)methylene]hydrazinyl}sulfonyl}phenyl}acetamide]",IC50,[1]; Leishmania donovani,> 10 µM
same,IC50,[3]; Leishmania major,> 10 µM
same,IC50,"[4]; Leishmania donovani, THP-1",> 10 µM
same,IC50,[6]; [8],> 10 µM
same,IC50,"A375 melanoma cells; Homo sapiens, A-375",> 10 µM
"C=C1C(=O)O[C@H]2[C@H]1CC/C(C)=C/CC[C@@]1(C)O[C@@H]21 [PN, parthenolide, reference compound]",IC50,"A375 melanoma cells; Homo sapiens, A-375",5.13 ± 0.81 µM
same,IC50,"[7]; Homo sapiens, HL-60, n = 3",1.85 ± 0.15 µM
"O=C1OCCN1/N=C/c1ccc([N+](=O)[O-])o1 [FZD, furazolidone, reference compound]",IC50,[1]; Leishmania donovani,0.32 µM
same,IC50,[2]; Leishmania donovani,0.28 ± 0.04 µM
same,IC50,[3]; Leishmania major,0.34 ± 0.03 µM
same,IC50,"[4]; Leishmania donovani, THP-1",1.94 µM
same,IC50,[6]; [8],2.8 ± 0.5 µM
"NNS(=O)(=O)c1ccc([N+](=O)[O-])cc1 [1b, 4-Nitrobenzenesulfonohydrazide]",melting point,,149 to 152 °C
"(E)-4-Methoxy-N'-[(5-nitrofuran-2-yl)methylene]-(1,1'-biphenyl)-4-sulfonohydrazide [2k]",IC50,[1],> 10 µM
same,IC50,[2],> 10 µM
same,IC50,[3],> 10 µM
same,IC50,[4],> 10 µM
same,IC50,[5],> 10 µM
same,IC50,[6]; L. major IR‐173,> 10 µM
same,IC50,A375 melanoma cells,> 10 µM
same,IC50,[7]; n = 3,> 10 µM
"NNS(=O)(=O)C1(F)C=CC(c2ccccc2)=CC1 (stereo not shown) [1i, 4-Fluoro-(1,1'-biphenyl)-4-sulfonohydrazide]",melting point,,164 to 169 °C
"CC(=O)Nc1ccc(S(=O)(=O)NN)cc1 [1 g, N-[4-(Hydrazinylsulfonyl)phenyl]acetamide]",melting point,,175 to 178 °C
"NNS(=O)(=O)c1cccc2c1OCCO2 [1l, 2,3-Dihydrobenzo[b][1,4]dioxine-5-sulfonohydrazide]",melting point,,101 to 103 °C
"NNS(=O)(=O)c1ccc(I)cc1 [1a, 4-Iodobenzenesulfonohydrazide]",melting point,,160 to 162 °C
"O=[N+]([O-])c1ccc(S(=O)(=O)N/N=C/c2ccc([N+](=O)[O-])o2)cc1 [2b, (E)-4-Nitro-N'-[(5-nitrofuran-2-yl)methylene]benzenesulfonohydrazide]",IC50,[1]; Leishmania donovani,> 10 µM
same,IC50,[2]; Leishmania donovani,> 10 µM
same,IC50,[3]; Leishmania major,> 10 µM
same,IC50,"[4]; Leishmania donovani, THP-1",> 10 µM
same,IC50,"[5]; Leishmania donovani, THP-1",> 10 µM
same,IC50,[6]; [8],> 10 µM
same,IC50,"A375 melanoma cells; Homo sapiens, A-375",> 10 µM
same,IC50,"[7]; Homo sapiens, HL-60, n = 3",< 10 µM
same,"Preliminary screening, growth inhibition, Clone 15 HL‐60",[7]; cutoff 50% growth inhibition at 10 μM,qualified
same,IC50,[7]; n = 3,9.32 ± 0.9 µM
"NNS(=O)(=O)c1ccc(-c2ccccc2)cc1 [1h, (1,1'-Biphenyl)-4-sulfonohydrazide]",melting point,,180 to 183 °C
"COC1(S(=O)(=O)NN)C=CC(c2ccccc2)=CC1 (stereo not shown) [1k, 4-Methoxy-(1,1'-biphenyl)-4-sulfonohydrazide]",melting point,,173 to 175 °C
